The values below come from paper PMC8037530, “Synthesis and Hybrid SAR Property Modeling of Novel Cholinesterase Inhibitors” (International Journal of Molecular Sciences, 2021).

Read-outs that look alike come from different tables or passages of the source.

Usually IC50 stands for the concentration that gives 50% inhibition.

The target of series [1] is T1, AChE from electric eel (Electrophorus electricus) (Electrophorus electricus, UniProt O42275).
T1 construct: purchased Sigma, St. Louis, MO, USA
The series can be described thus: In vitro AChE inhibition, modified Ellman's method. The series is classed as biochemical. The method, then:
(§1) The ability of all the prepared compounds to inhibit AChE from electric eel (Electrophorus electricus) and BChE from equine serum (both purchased from Sigma, St. Louis, MO, USA) was determined in vitro using a modified Ellman’s method, as described in detail elsewhere. This is a simple, rapid, and direct method to determine the SH and -S-S- group content in proteins. The enzyme activity is measured indirectly by quantifying the concentration of the 5-thio-2-nitrobenzoic acid ion formed in the reaction between the thiol reagent 5,5’-dithiobis-2nitrobenzoic acid (DTNB) and thiocholine, which is a product of acetylthiocholine hydrolysis catalyzed by cholinesterases. The effectiveness of the tested inhibitors is expressed as the IC50 values.
(§2) The enzyme activity in the final reaction mixture (2 mL) was 0.2 U/mL, the concentration of the substrate (acetylthiocholine or butyrythiocholine) was 40 µM, and the concentration of DTNB was 0.1 mM for all reactions. All reactions were carried out at 25 °C in the presence of phosphate-buffered saline (0.1 M, pH 7.4) in a glass cuvette with a 1 cm optical path. All the studied inhibitors were dissolved in DMSO (concentration 0.01 M) and then diluted in demineralized water as necessary. […] All measurements were carried out in triplicate, and the average values of the reaction rate (v0—reaction in the absence of the inhibitor, vi—reaction in the presence of the inhibitor) were used for construction of the dependence v0/vi vs. concentration of the inhibitor.

The target in a further series is T2, BChE from equine serum (Equus caballus, UniProt P81908).
T2 construct: BChE from equine serum; purchased Sigma, St. Louis, MO, USA; host or cells: equine serum
The series can be described thus: In vitro BChE inhibition, modified Ellman's method. Conditions: for SI (index selectivity) = IC50 (AChE)/IC50 (BChE): ratio IC50 AChE/IC50 BChE. The series is classed as biochemical. The method, then:
as §1, §2
A general note: DTNB colorimetry detects thiols as they appear.

A short description of series [2]: Determination of lipophilicity by RP-HPLC (capacity factor k). Conditions: C18, isocratic MeOH 72%/H2O 28%, 40 °C. The series is classed as physicochemical. The method, then:
The lipophilicity of all the target compounds was investigated by means of RP-HPLC determination of capacity factors k with a subsequent calculation of log k. The retention times of individual compounds were determined under isocratic conditions with methanol as an organic modifier in the mobile phase using end-capped non-polar C18 stationary RP columns.
The HPLC separation system Agilent 1200 series equipped with a DAD SL (Agilent Technologies) was used. A chromatographic column Symmetry® C18 5 μm, 4.6 × 250 mm, Part No. W21751W016 (Waters Corp., Milford, MA, USA) was applied. The HPLC separation process was monitored by the ChemStation for LC 3D chromatography software (Agilent Technologies). Isocratic elution by a mixture of MeOH p.a. (72%) and H2O-HPLC Mili-Q grade (28%) as a mobile phase was used for the determination of the capacity factor k. The total flow of the column was 1.0 mL/min, injection 20 μL, column temperature 40 °C, and sample temperature 10 °C. The detection wavelength of 210 nm was chosen. A KI methanolic solution was used for the determination of the dead times (tD). Retention times (tR) were measured in minutes. The capacity factors k were calculated according to the formula k = (tR − tD)/tD, where tR is the retention time of the solute and tD is the dead time obtained using an unretained analyte. Each experiment was repeated three times.

T2 sequence (P81908 whole entry): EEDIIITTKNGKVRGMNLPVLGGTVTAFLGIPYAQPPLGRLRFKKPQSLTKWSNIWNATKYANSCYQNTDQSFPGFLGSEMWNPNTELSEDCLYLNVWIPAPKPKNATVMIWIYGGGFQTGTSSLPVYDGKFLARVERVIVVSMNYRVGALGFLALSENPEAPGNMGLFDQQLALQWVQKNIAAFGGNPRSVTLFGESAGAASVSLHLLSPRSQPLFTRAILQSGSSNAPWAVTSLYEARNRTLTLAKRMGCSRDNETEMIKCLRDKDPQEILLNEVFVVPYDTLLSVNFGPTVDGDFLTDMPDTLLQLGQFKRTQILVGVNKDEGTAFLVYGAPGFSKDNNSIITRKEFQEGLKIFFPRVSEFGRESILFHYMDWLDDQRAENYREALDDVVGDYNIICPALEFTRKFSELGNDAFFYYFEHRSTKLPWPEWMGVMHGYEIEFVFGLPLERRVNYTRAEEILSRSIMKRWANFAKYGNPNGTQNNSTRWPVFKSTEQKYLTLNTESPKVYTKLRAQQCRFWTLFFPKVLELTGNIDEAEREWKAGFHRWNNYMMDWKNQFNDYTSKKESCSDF
T1 sequence (O42275 24-633): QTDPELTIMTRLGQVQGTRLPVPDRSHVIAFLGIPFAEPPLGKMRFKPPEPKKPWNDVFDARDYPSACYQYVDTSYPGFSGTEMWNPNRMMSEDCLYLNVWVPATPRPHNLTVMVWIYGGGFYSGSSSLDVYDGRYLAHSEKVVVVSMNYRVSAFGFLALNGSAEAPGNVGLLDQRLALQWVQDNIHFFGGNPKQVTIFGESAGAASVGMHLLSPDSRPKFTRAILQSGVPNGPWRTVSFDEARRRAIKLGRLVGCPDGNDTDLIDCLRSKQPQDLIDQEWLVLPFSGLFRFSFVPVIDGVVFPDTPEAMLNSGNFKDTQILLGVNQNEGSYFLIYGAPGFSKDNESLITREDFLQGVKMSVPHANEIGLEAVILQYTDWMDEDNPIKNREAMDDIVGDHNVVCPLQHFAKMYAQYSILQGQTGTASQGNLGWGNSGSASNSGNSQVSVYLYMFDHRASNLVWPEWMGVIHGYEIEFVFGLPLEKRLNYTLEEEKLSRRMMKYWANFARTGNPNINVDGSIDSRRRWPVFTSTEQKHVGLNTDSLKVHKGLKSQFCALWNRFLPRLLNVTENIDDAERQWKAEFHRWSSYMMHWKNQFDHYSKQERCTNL

For `O=C(Nc1ccc(C(=O)Nc2ccccc2OC(F)(F)F)c(O)c1)OCc1ccccc1`, the IC50 in series [1] (mean ± SD, n = 3, electric eel AChE, 25 °C, pH 7.4, read-out: IC50 AChE) amounted to 36.1 µM.

Consider `O=C(Nc1ccc(C(=O)O)c(O)c1)OCc1ccccc1` [CbzPAS, 4-{[(Benzyloxy)carbonyl]amino}-2-hydroxybenzoic acid, reference compound], for which, at BChE from equine serum, half-maximal inhibition (IC50) required 137 ± 21.8 µM and the “SI (index selectivity) = IC50 (AChE)/IC50 (BChE)” value (“SI (index selectivity) = IC50” below) was 0.42. The same molecule had an IC50 in series [1] of 58.1 ± 1.04 µM.

Turning to `O=C(Nc1ccc(C(=O)Nc2ccccc2)c(O)c1)OCc1ccccc1` [Compound 1, Benzyl[3-hydroxy-4-(phenylcarbamoyl)phenyl]carbamate], the IC50 came to 175 ± 5.85 µM on BChE from equine serum and 65.2 ± 2.24 µM in series [1]. Moreover, on BChE from equine serum, the “SI (index selectivity) = IC50” value came out at 0.37. In series [2], this molecule came in with a log k of 0.1160.

For `COc1cccc(NC(=O)c2ccc(NC(=O)OCc3ccccc3)cc2O)c1` [Compound 3, Benzyl{3-hydroxy-4-[(3-methoxyphenyl)carbamoyl]phenyl}carbamate], on BChE from equine serum, the IC50 was 362 ± 8.12 µM and the “SI (index selectivity) = IC50” value turned out to be 0.19. Also, the log k in series [2] stood at 0.1280. The IC50 in series [1] came out at 69.3 ± 2 µM.

Turning to `COc1ccc(NC(=O)c2ccc(NC(=O)OCc3ccccc3)cc2O)cc1` [Compound 4, Benzyl{3-hydroxy-4-[(4-methoxyphenyl)carbamoyl]phenyl}carbamate], the IC50 came to 154 ± 6.09 µM against BChE from equine serum and 57.49 ± 0.08 µM in series [1]. Besides, the “SI (index selectivity) = IC50” value on BChE from equine serum worked out at 0.37. In series [2], this molecule displayed a log k of 0.1176.

As for `Cc1cccc(NC(=O)c2ccc(NC(=O)OCc3ccccc3)cc2O)c1` [Compound 5, Benzyl{3-hydroxy-4-[(3-methylphenyl)carbamoyl]phenyl}carbamate], on BChE from equine serum, the IC50 worked out at 167 ± 10.2 µM and the “SI (index selectivity) = IC50” value worked out at 0.42. In series [2], this molecule registered a log k of 0.2725. The IC50 in series [1] was 70.2 ± 1.7 µM.

On to `O=C(Nc1ccc(C(=O)Nc2ccccc2F)c(O)c1)OCc1ccccc1` [Compound 6, Benzyl{4-[(2-fluorophenyl)carbamoyl]-3-hydroxyphenyl}carbamate], for which the IC50 at BChE from equine serum stood at 70.8 ± 5.61 µM; in series [1] it was 50.07 ± 0.06 µM. For the same molecule, the “SI (index selectivity) = IC50” value at BChE from equine serum is 0.71. Besides, the log k in series [2] came to 0.3577.

In the case of `O=C(Nc1ccc(C(=O)Nc2cccc(F)c2)c(O)c1)OCc1ccccc1` [Compound 7, Benzyl{4-[(3-fluorophenyl)carbamoyl]-3-hydroxyphenyl}carbamate], the IC50 at BChE from equine serum was 197.6 ± 1.36 µM; in series [1], 66.6 ± 0.14 µM. Moreover, at BChE from equine serum, the “SI (index selectivity) = IC50” value is listed as 0.34. The molecule also gave a log k in series [2] of 0.2303.

Consider `O=C(Nc1ccc(C(=O)Nc2ccc(F)cc2)c(O)c1)OCc1ccccc1` [Compound 8, Benzyl{4-[(4-fluorophenyl)carbamoyl]-3-hydroxyphenyl}carbamate], for which, on BChE from equine serum, half-maximal inhibition (IC50) was put at 105.8 ± 0.43 µM and the “SI (index selectivity) = IC50” value is on record as 0.45. Also, the log k in series [2] was 0.3924. Moreover, in series [1], the IC50 came out at 47.4 ± 0.61 µM.

`O=C(Nc1ccc(C(=O)Nc2ccccc2Cl)c(O)c1)OCc1ccccc1` [Compound 9, Benzyl{4-[(2-chlorophenyl)carbamoyl]-3-hydroxyphenyl}carbamate]: at BChE from equine serum, it took 140.1 ± 0.35 µM to reach half-maximal inhibition (IC50) and the “SI (index selectivity) = IC50” value amounted to 0.30. This molecule returned a log k in series [2] of 0.5188. The molecule also returned an IC50 in series [1] of 41.86 ± 0.15 µM.

As for `O=C(Nc1ccc(C(=O)Nc2cccc(Cl)c2)c(O)c1)OCc1ccccc1` [Compound 10, Benzyl{4-[(3-chlorophenyl)carbamoyl]-3-hydroxyphenyl}carbamate], on BChE from equine serum, it took 204 ± 7.49 µM to reach half-maximal inhibition (IC50) and the “SI (index selectivity) = IC50” value was found to be 0.30. Moreover, the log k in series [2] is reported as 0.6411. Moreover, in series [1], the IC50 worked out at 61.6 ± 1.74 µM.

For `O=C(Nc1ccc(C(=O)Nc2ccc(Cl)cc2)c(O)c1)OCc1ccccc1` [Compound 11, Benzyl{4-[(4-chlorophenyl)carbamoyl]-3-hydroxyphenyl}carbamate], the IC50 against BChE from equine serum was 139 ± 6.86 µM; in series [1] it was 78.2 ± 1.58 µM. Further, the “SI (index selectivity) = IC50” value on BChE from equine serum is listed as 0.56. In series [2], the log k amounted to 0.6399.

Take `O=C(Nc1ccc(C(=O)Nc2ccccc2C(F)(F)F)c(O)c1)OCc1ccccc1` [Compound 12, Benzyl(3-hydroxy-4-{[2-(trifluoromethyl)phenyl]carbamoyl}phenyl)carbamate]: the IC50 is 33.6 ± 0.71 µM against BChE from equine serum and 56.4 ± 1.26 µM in series [1]. Besides, the “SI (index selectivity) = IC50” value on BChE from equine serum worked out at 1.68. Also, in series [2], the log k is given as 0.4318.

Take `O=C(Nc1ccc(C(=O)Nc2cccc(C(F)(F)F)c2)c(O)c1)OCc1ccccc1` [Compound 13, Benzyl(3-hydroxy-4-{[3-(trifluoromethyl)phenyl]carbamoyl}phenyl)carbamate]: at BChE from equine serum, the IC50 worked out at 309 ± 8.06 µM and the “SI (index selectivity) = IC50” value is on record as 0.23. The molecule further came in with a log k in series [2] of 0.4477. This molecule registered an IC50 in series [1] of 70.67 ± 0.57 µM.

Regarding `O=C(Nc1ccc(C(=O)Nc2ccc(C(F)(F)F)cc2)c(O)c1)OCc1ccccc1` [Compound 14, Benzyl(3-hydroxy-4-{[4-(trifluoromethyl)phenyl]carbamoyl}phenyl)carbamate], the IC50 at BChE from equine serum stood at 137 ± 21.9 µM; in series [1], 71.4 ± 5.04 µM. The “SI (index selectivity) = IC50” value at BChE from equine serum is 0.52. Also, the log k in series [2] amounted to 0.7408.

As to `O=C(Nc1ccc(C(=O)Nc2ccccc2OC(F)(F)F)c(O)c1)OCc1ccccc1` [Compound 15, Benzyl(3-hydroxy-4-{[2-(trifluoromethoxy)phenyl]carbamoyl}phenyl)carbamate], at BChE from equine serum, the IC50 is 44.3 ± 0.87 µM and the “SI (index selectivity) = IC50” value is reported as 0.81. In series [2], the log k was determined as 0.6227. This molecule registered an IC50 in series [1] of 36 ± 1.48 µM.

Take `O=C(Nc1ccc(C(=O)Nc2cccc(F)c2F)c(O)c1)OCc1ccccc1` [Compound 16, Benzyl{4-[(2,3-difluorophenyl)carbamoyl]-3-hydroxyphenyl}carbamate]: the IC50 against BChE from equine serum was 200 ± 7 µM; in series [1], 62.4 ± 1.42 µM. Also, the “SI (index selectivity) = IC50” value at BChE from equine serum was determined as 0.31. The same molecule returned a log k in series [2] of 0.4705.

As for `O=C(Nc1ccc(C(=O)Nc2ccc(F)cc2F)c(O)c1)OCc1ccccc1` [Compound 17, Benzyl{4-[(2,4-difluorophenyl)carbamoyl]-3-hydroxyphenyl}carbamate], the IC50 against BChE from equine serum stood at 180 ± 7.04 µM; in series [1], 79.2 ± 1.27 µM. Also, the “SI (index selectivity) = IC50” value on BChE from equine serum turned out to be 0.44. The same molecule had a log k in series [2] of 0.1912.

Consider `O=C(Nc1ccc(C(=O)Nc2cc(F)ccc2F)c(O)c1)OCc1ccccc1` [Compound 18, Benzyl{4-[(2,5-difluorophenyl)carbamoyl]-3-hydroxyphenyl}carbamate], for which, at BChE from equine serum, the IC50 turned out to be 157 ± 3.11 µM and the “SI (index selectivity) = IC50” value turned out to be 0.37. The molecule also had a log k in series [2] of 0.4012. In series [1], this molecule showed an IC50 of 58.31 ± 0.2 µM.

Turning to `O=C(Nc1ccc(C(=O)Nc2c(F)cccc2F)c(O)c1)OCc1ccccc1` [Compound 19, Benzyl{4-[(2,6-difluorophenyl)carbamoyl]-3-hydroxyphenyl}carbamate], on BChE from equine serum, the IC50 amounted to 42.9 ± 2.13 µM and the “SI (index selectivity) = IC50” value is 1.50. This molecule also yielded a log k in series [2] of -0.1205. The molecule further had an IC50 in series [1] of 64.3 ± 4.74 µM.

In the case of `O=C(Nc1ccc(C(=O)Nc2cc(F)cc(F)c2)c(O)c1)OCc1ccccc1` [Compound 20, Benzyl{4-[(3,5-difluorophenyl)carbamoyl]-3-hydroxyphenyl}carbamate], at BChE from equine serum, the midpoint of inhibition, the IC50, lay at 208 ± 5.3 µM and the “SI (index selectivity) = IC50” value was determined as 0.32. The log k in series [2] is given as 0.4072. The same molecule displayed an IC50 in series [1] of 67.4 ± 5.24 µM.

In the case of `O=C(Nc1ccc(C(=O)Nc2cccc(Cl)c2Cl)c(O)c1)OCc1ccccc1` [Compound 21, Benzyl{4-[(2,3-dichlorophenyl)carbamoyl]-3-hydroxyphenyl}carbamate], on BChE from equine serum, the IC50 stood at 248 ± 14.9 µM and the “SI (index selectivity) = IC50” value worked out at 0.36. In series [2], this molecule returned a log k of 0.5497. For the same molecule, the IC50 in series [1] was 88.8 ± 1.42 µM.
